Data taken from paper PMC6934184, “Selective DNA-PKcs inhibition extends the therapeutic index of localized radiotherapy and chemotherapy” (The Journal of Clinical Investigation, 2019).

Target: T1, CDK5/p25 (Homo sapiens, UniProt Q00535)
T1 construct: purchased Thermo Fisher Scientific (Life Technologies) SelectScreen
Assay: SelectScreen Z'LYTE
Format: biochemical
Summary of the method: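 Percent values come from Thermo SelectScreen profiling of NU5455, combining activity and binding assays. CSF1R was run in Z'LYTE format at Km app ATP, and CAMK1 in Adapta format with ATP listed at 10.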

T1 sequence (Q00535 whole entry): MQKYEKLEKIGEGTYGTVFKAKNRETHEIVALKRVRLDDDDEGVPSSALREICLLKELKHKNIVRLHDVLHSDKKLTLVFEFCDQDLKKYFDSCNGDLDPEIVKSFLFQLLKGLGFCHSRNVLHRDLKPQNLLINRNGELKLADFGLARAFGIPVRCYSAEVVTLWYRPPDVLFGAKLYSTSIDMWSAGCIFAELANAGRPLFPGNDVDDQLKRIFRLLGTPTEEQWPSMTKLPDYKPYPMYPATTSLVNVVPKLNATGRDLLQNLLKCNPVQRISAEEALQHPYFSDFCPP
T1 sequence (Q15078 99-307 partner limits assumed): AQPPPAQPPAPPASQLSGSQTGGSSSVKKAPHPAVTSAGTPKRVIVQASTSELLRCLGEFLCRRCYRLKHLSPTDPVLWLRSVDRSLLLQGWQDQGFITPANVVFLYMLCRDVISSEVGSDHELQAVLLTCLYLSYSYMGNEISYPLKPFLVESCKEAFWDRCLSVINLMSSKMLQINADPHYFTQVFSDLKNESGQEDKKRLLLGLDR

CN(C(=O)CN1CCOCC1)c1ccc2sc3c(-c4cccc5c(=O)cc(N6CC7CCC(C6)O7)oc45)cccc3c2c1 [NU5455]
inhibition at 1 µM: -1.1%
